Key:
[1] = system: Corynespora cassiicola; assay: Control of Corynespora cassiicola (target leaf spot) in vitro: inhibition of fungal growth in nutrient broth (PDB); assay type: cell-based; conditions: 24° C., 3-4 days, photometric 620 nm, read-out: control of Corynespora cassiicola (inhibition of growth vs untreated control)
Protocol: Conidia of the fungus from cryogenic storage were directly mixed into nutrient broth (PDB potato dextrose broth). A DMSO solution of the test compounds was placed into a microtiter plate (96-well format) and the nutrient broth containing the fungal spores was added to it. The test plates were incubated at 24° C. and the inhibition of growth (% control of Corynespora cassiicola) was determined photometrically after 3-4 days at 620 nm. The activity of a compound is derived by comparing the inhibition of growth in the treated test solution to the growth in the untreated check. The concentration of the compounds was 6.7, 2.2, 0.74, 0.25, and 0.082 ppm.

[2] = system: Corynespora cassiicola; assay: Control of Corynespora cassiicola (target leaf spot) on soybean plants under field conditions; assay type: in vivo; conditions: for Control vs. untreated (%) / Mean severity (percentage of leaf area covered by disease lesions): three foliar applications, soybean, Brazil
Protocol: Tested fungicides were formulated and applied to soybean plants in a foliar broadcast spray using a handheld horizontal boom sprayer. Three applications were made over the course of the growing season, starting 45 days after crop emergence, with following applications at 14-day intervals. Trials were conducted across five locations in Brazil. Assessments of severity of infection from Corynespora cassiicola were made at weekly intervals, based on the percentage of leaf area covered by disease lesions. The results reflect the median scores for these assessments, excluding those with less than 10% severity in the untreated checks to limit the confounding effect of low disease pressure. Values are expressed as the mean disease severity score and as the percentage control relative to the untreated. The comparison is made between Compound A-1.3 at 35 grams active ingredient per hectare and the commercial compounds trifloxystrobin and picoxystrobin at their label rate of 60 grams active ingredient per hectare.

[3] = Trial 1, 60 g/ha, untreated check 24.9
[4] = Trial 2, 60 g/ha, untreated check 18.8

Compound	inhibition of growth at 6.7 ppm [1] [%]	Control vs. untreated (%) ([2]; Trial 1, 60 g/ha)	Mean severity (percentage of leaf area covered by disease lesions) [2, 3]	Control vs. untreated (%) ([2]; Trial 2, 60 g/ha)	Mean severity (percentage of leaf area covered by disease lesions) [2, 4]	inhibition of growth at 2.2 ppm [1] [%]	also measured
CON=C(C(=O)OC)c1ccccc1CON=C(C)c1cccc(C(F)(F)F)c1 [trifloxystrobin]	50	35.3	18.1	6.7	16.0		
COC(=O)N(OC)c1ccccc1COc1ccn(-c2ccc(Cl)cc2)n1 [pyraclostrobin]	50						
COC(=O)NCc1cc(-c2ccn(-c3c(F)cc(C4CC4)cc3F)n2)ccc1C [Compound A-1.3, methyl N-[[5-[1-(4-cyclopropyl-2,6-difluoro-phenyl)pyrazol-3-yl]-2-methyl-phenyl]methyl]carbamate]	≥ 70					≥ 50	inhibition of growth at 0.74 ppm ([1]; 0.74 ppm): ≥ 50%; Control vs. untreated (%) ([2]; Trial 1, 35 g/ha): 63.9%; Mean severity (percentage of leaf area covered by disease lesions) ([2]; Trial 1, 35 g/ha, untreated check 24.9): 9.9; Control vs. untreated (%) ([2]; Trial 2, 35 g/ha): 68.0%; Mean severity (percentage of leaf area covered by disease lesions) ([2]; Trial 2, 35 g/ha, untreated check 18.8): 5.3; control of Corynespora cassiicola compared with commercial compounds, in words ([2]; field trials 1 and 2, 35 g/ha vs trifloxystrobin and picoxystrobin at 60 g/ha): better control of Corynespora cassiicola than both trifloxystrobin and picoxystrobin
COC(=O)NCc1cc(-c2ccn(-c3c(F)cc(C(C)C)cc3F)n2)ccc1C [Compound A-1.1, methyl N-[[5-[1-(2,6-difluoro-4-isopropyl-phenyl)pyrazol-3-yl]-2-methyl-phenyl]methyl]carbamate]	≥ 50					≥ 50	
CO/C=C(/C(=O)OC)c1ccccc1COc1cccc(C(F)(F)F)n1 [Picoxystrobin, picoxystrobin]		45.9	14.8	20.0	14.0		
CO/C=C(/C(=O)OC)c1ccccc1Oc1cc(Oc2ccccc2C#N)ncn1 [azoxystrobin]	50						
